Where “and” joins values, the source holds several entries; their conditions need not be identical. Equal entries are not always repeated. Toxic doses and inconclusive results are not listed. Rule for the calls: active = survival T/C of 150% or more; inactive = T/C below 125% in these data. Bridge positions count the residues as written; N and C are the ends. Peptide text beside a SMILES is read from it. I, II: the chains in the order shown.
Test system: P388 leukemia ip, CD2F1 mice, survival T/C
Assay: NCI In Vivo Anticancer Drug Screen. Data for tumor model P388 Leukemia (intraperitoneal) in CD2F1 (CDF1) mice
Settings: endpoint: median survival time, higher = longer survival
Procedure, shortened: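 Mice carrying the transplanted tumor received test compound or vehicle. Survival was recorded in each group, and the value is the treated-group measurement divided by that of the vehicle-treated control group.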

[1] = dose: 12.5 mg/kg/injection, schedule: Q04DX003 (ip), vehicle: saline with Tween-80
[2] = dose: 25.0 mg/kg/injection, schedule: Q04DX003 (ip), vehicle: saline with Tween-80
[3] = dose: 100.0 mg/kg/injection, schedule: Q04DX003 (ip), vehicle: saline with Tween-80
[4] = dose: 50.0 mg/kg/injection, schedule: Q01DX005 (ip), vehicle: saline with Tween-80
[5] = dose: 100.0 mg/kg/injection, schedule: Q01DX005 (ip), vehicle: saline with Tween-80
[6] = dose: 200.0 mg/kg/injection, schedule: Q01DX005 (ip), vehicle: saline with Tween-80
[7] = dose: 6.25 mg/kg/injection, schedule: Q01DX009 (ip), vehicle: saline with Tween-80
[8] = dose: 50.0 mg/kg/injection, schedule: Q01DX009 (ip), vehicle: saline with Tween-80
[9] = dose: 100.0 mg/kg/injection, schedule: Q01DX009 (ip), vehicle: saline with Tween-80
[10] = dose: 200.0 mg/kg/injection, schedule: Q01DX009 (ip), vehicle: saline with Tween-80
[11] = dose: 50.0 mg/kg/injection, schedule: Q01DX009 (ip), vehicle: saline
[12] = dose: 100.0 mg/kg/injection, schedule: Q01DX009 (ip), vehicle: saline
[13] = dose: 200.0 mg/kg/injection, schedule: Q01DX009 (ip), vehicle: saline
[14] = dose: 50.0 mg/kg/injection, schedule: Q01DX005 (ip), vehicle: Klucel (hydroxypropylcellulose) (HPC)
[15] = dose: 100.0 mg/kg/injection, schedule: Q01DX005 (ip), vehicle: Klucel (hydroxypropylcellulose) (HPC)
[16] = dose: 200.0 mg/kg/injection, schedule: Q01DX005 (ip), vehicle: Klucel (hydroxypropylcellulose) (HPC)
[17] = dose: 12.5 mg/kg/injection, schedule: Q01DX009 (ip), vehicle: saline with Tween-80
[18] = dose: 25.0 mg/kg/injection, schedule: Q01DX009 (ip), vehicle: saline with Tween-80
[19] = dose: 50.0 mg/kg/injection, schedule: Q01DX009 (ip), vehicle: Klucel (hydroxypropylcellulose) (HPC)
[20] = dose: 100.0 mg/kg/injection, schedule: Q01DX009 (ip), vehicle: Klucel (hydroxypropylcellulose) (HPC)

Measured: T/C

CSC(CNC(=O)N(CCCl)N=O)n1cc(F)c(=O)[nH]c1=O (configuration not stated)
active: dose: 3.12 mg/kg/injection, schedule: Q04DX003 (ip), vehicle: saline with Tween-80 161 % of control | dose: 6.25 mg/kg/injection, schedule: Q04DX003 (ip), vehicle: saline with Tween-80 158 % of control and 171 % of control | [1] 220 % of control and 264 % of control | [2] 266 % of control and 285 % of control | dose: 50.0 mg/kg/injection, schedule: Q04DX003 (ip), vehicle: saline with Tween-80 275 % of control and 285 % of control
inactive: [3] 110 % of control and 123 % of control

CC(O)CC1(c2ccccc2)CNC(=O)NC1=O (configuration not stated)
inactive: dose: 25.0 mg/kg/injection, schedule: Q01DX001 (ip), vehicle: Klucel (hydroxypropylcellulose) (HPC) 94 % of control | dose: 50.0 mg/kg/injection, schedule: Q01DX001 (ip), vehicle: Klucel (hydroxypropylcellulose) (HPC) 94 % of control | dose: 100.0 mg/kg/injection, schedule: Q01DX001 (ip), vehicle: Klucel (hydroxypropylcellulose) (HPC) 99 % of control and 106 % of control | dose: 400.0 mg/kg/injection, schedule: Q01DX001 (ip), vehicle: Klucel (hydroxypropylcellulose) (HPC) 92 % of control

CCCC1C2C=CC(C(S(=O)(=O)c3ccccc3)C2)N1C(=O)OCC (configuration not stated)
inactive: dose: 25.0 mg/kg/injection, schedule: Q01DX005 (ip), vehicle: saline with Tween-80 100 % of control | [4] 103 % of control | [5] 102 % of control | [6] 102 % of control

Clc1cc(CBr)c(CBr)cc1Cl
inactive: dose: 3.13 mg/kg/injection, schedule: Q01DX009 (ip), vehicle: saline with Tween-80 95 % of control | [7] 100 % of control | [1] 113 % of control | [2] 109 % of control

CC(C)(C)c1ccc(-c2nnc(C(F)(F)F)nn2)cc1
inactive: [8] 100 % of control | [9] 100 % of control | [10] 108 % of control

COc1ccc(C(=O)C(Br)CS(=O)(=O)c2ccc(C)cc2)cc1 (configuration not stated)
inactive: dose: 100.0 mg/kg/injection, schedule: Q04DX002 (ip), vehicle: saline 100 % of control | dose: 200.0 mg/kg/injection, schedule: Q04DX002 (ip), vehicle: saline 102 % of control | dose: 400.0 mg/kg/injection, schedule: Q04DX002 (ip), vehicle: saline 108 % of control

N[N+]1(CCS(N)(=O)=O)CCOCC1
inactive: [11] 110 % of control | [12] 91 % of control | [13] 96 % of control

C(CCCSC1=NCCN1)CCSC1=NCCN1
inactive: [11] 103 % of control | [12] 100 % of control

CC(C)c1cc(=O)c2cc3[nH]c4ccccc4c3cc2[nH]1
inactive: [4] 97 % of control | [5] 87 % of control | [6] 90 % of control

CCCCCCC(=O)/C=C/c1cccc(OC)c1OC
inactive: [8] 99 % of control | [9] 107 % of control | [10] 105 % of control

CC(=O)N(C)c1ccc(N)c2c1C(=O)c1ccccc1C2=O
inactive: [14] 106 % of control | [15] 94 % of control | [16] 106 % of control

CC(Nc1nccs1)Nc1nccs1
inactive: [7] 102 % of control and 96 % of control | [17] 108 % of control and 98 % of control | [18] 102 % of control and 97 % of control | [8] 111 % of control | [9] 109 % of control

Nc1nc[nH]c(=O)c1NC(=O)c1cccc([N+](=O)[O-])c1
inactive: [17] 101 % of control | [18] 100 % of control | [8] 96 % of control | [9] 99 % of control

Nc1cc2nc3ccccc3oc-2cc1=O
inactive: [14] 105 % of control | [15] 101 % of control | [16] 97 % of control

Clc1nc(C(Cl)Cl)nc2sc3c(c12)CCCC3
inactive: dose: 60.0 mg/kg/injection, schedule: Q01DX005 (ip), vehicle: saline with Tween-80 98 % of control | dose: 120.0 mg/kg/injection, schedule: Q01DX005 (ip), vehicle: saline with Tween-80 94 % of control | dose: 240.0 mg/kg/injection, schedule: Q01DX005 (ip), vehicle: saline with Tween-80 96 % of control

CCCCCCCCCCCCCCCOc1cc(OC)ccc1-c1nnc(SC)s1
inactive: [11] 100 % of control | [12] 91 % of control | [13] 100 % of control

CC(C)(C)C1=CS(=O)(=O)C1
inactive: dose: 1.56 mg/kg/injection, schedule: Q01DX001 (ip), vehicle: saline with Tween-80 103 % of control | dose: 3.12 mg/kg/injection, schedule: Q01DX001 (ip), vehicle: saline with Tween-80 102 % of control

CCCCCCCCCCCCC[N+](C)([O-])CCCCCC[N+](C)([O-])CCCCCCCCCCCCC (configuration not stated)
inactive: dose: 12.5 mg/kg/injection, schedule: Q01DX009 (ip), vehicle: Klucel (hydroxypropylcellulose) (HPC) 100 % of control | dose: 25.0 mg/kg/injection, schedule: Q01DX009 (ip), vehicle: Klucel (hydroxypropylcellulose) (HPC) 93 % of control | [19] 101 % of control and 93 % of control

O=C(CCCCCO)c1nc2ccccc2s1
inactive: dose: 60.0 mg/kg/injection, schedule: Q01DX005 (ip), vehicle: Klucel (hydroxypropylcellulose) (HPC) 100 % of control | dose: 120.0 mg/kg/injection, schedule: Q01DX005 (ip), vehicle: Klucel (hydroxypropylcellulose) (HPC) 102 % of control | dose: 240.0 mg/kg/injection, schedule: Q01DX005 (ip), vehicle: Klucel (hydroxypropylcellulose) (HPC) 94 % of control

COc1ccccc1N1CCN(CCCNc2cc(=O)n(C)c(=O)n2C)CC1
inactive: [19] 98 % of control | [20] 104 % of control | dose: 200.0 mg/kg/injection, schedule: Q01DX009 (ip), vehicle: Klucel (hydroxypropylcellulose) (HPC) 108 % of control

CCOC(=O)CSc1ccccc1
inactive: [11] 100 % of control | [12] 98 % of control | [13] 100 % of control | dose: 400.0 mg/kg/injection, schedule: Q01DX009 (ip), vehicle: saline 100 % of control

NC(CSSCC(N)C(=O)NC(Cc1ccccc1)C(=O)O)C(=O)NC(Cc1ccccc1)C(=O)O (stereo not drawn) (I: H-Cys-Phe-OH / II: H-Cys-Phe-OH; disulfide I:1-II:1; configuration not given here)
inactive: [14] 101 % of control | [15] 97 % of control | [16] 105 % of control

C[N+]1(C)C2CCC1CC(=O)C2
inactive: dose: 12.5 mg/kg/injection, schedule: Q01DX009 (ip), vehicle: suspension in saline 107 % of control | dose: 25.0 mg/kg/injection, schedule: Q01DX009 (ip), vehicle: suspension in saline 107 % of control

CCOC(=O)/C=C(/C)Sc1cc(O)c2ccccc2c1O
inactive: [7] 100 % of control

CNC(=O)OCc1c(-c2ccccc2)c(-c2ccccc2)n(C)c1COC(=O)NC
inactive: dose: 1.56 mg/kg/injection, schedule: Q01DX009 (ip), vehicle: distilled water + Tween-80 102 % of control
active: dose: 12.5 mg/kg/injection, schedule: Q01DX009 (ip), vehicle: distilled water + Tween-80 154 % of control and 164 % of control | dose: 25.0 mg/kg/injection, schedule: Q01DX009 (ip), vehicle: distilled water + Tween-80 160 % of control and 174 % of control | dose: 50.0 mg/kg/injection, schedule: Q01DX009 (ip), vehicle: distilled water + Tween-80 165 % of control and 171 % of control

Cc1cc2ccc(OC(=O)c3ccc(N=C(N)N)cc3)cc2oc1=O
inactive: [3] 100 % of control | dose: 200.0 mg/kg/injection, schedule: Q04DX003 (ip), vehicle: saline with Tween-80 91 % of control | dose: 400.0 mg/kg/injection, schedule: Q04DX003 (ip), vehicle: saline with Tween-80 87 % of control

CCCC1(CC(=O)O)OCCc2c1[nH]c1ccccc21 (configuration not stated)
inactive: [19] 102 % of control | [20] 108 % of control

Cn1c(=O)c2nc(-c3ccc(Cl)c(Cl)c3)c(-c3ccc(Cl)c(Cl)c3)nc2n(C)c1=O
inactive: dose: 3.13 mg/kg/injection, schedule: Q01DX001 (ip), vehicle: saline with Tween-80 100 % of control | dose: 6.25 mg/kg/injection, schedule: Q01DX001 (ip), vehicle: saline with Tween-80 104 % of control | dose: 12.5 mg/kg/injection, schedule: Q01DX001 (ip), vehicle: saline with Tween-80 95 % of control | dose: 25.0 mg/kg/injection, schedule: Q01DX001 (ip), vehicle: saline with Tween-80 96 % of control | dose: 50.0 mg/kg/injection, schedule: Q01DX001 (ip), vehicle: saline with Tween-80 93 % of control | dose: 200.0 mg/kg/injection, schedule: Q01DX001 (ip), vehicle: saline with Tween-80 91 % of control
